EC50, IC50 and melting point data for 23 molecules are collected here from patent US8912189B2, “Pyridopyrazine derivatives and their use” (Aeterna Zentaris GmbH, priority 2011, dated 2014).

Each structure is given as a SMILES string.

Series [1] relates to Hct116. As to the kind of experiment: XTT assay, anti-proliferative effect. It is filed as cell-based. The conditions noted are these: Homo sapiens, HCT-116; Hct116 cells, ~48 h incubation. As to the method: The principle of this test is based on the intracellular reduction of the tetrazolium dye XTT (sodium 3′-[1-(phenylaminocarbonyl)-3,4-tetrazolium]-bis(4-methoxy-6-nitro)benzene sulfonic acid, Sigma) to a formazan dye by mitochondrial dehydrogenases. The dye is only formed by metabolically active cells and its photometrically measurable intensity is a quantitative indicator for the presence of living cells. The reduction of dye formation by incubation of the cells with substances serves as a parameter for the anti-proliferative effect.
The tumour cell lines (ATCC) were injected into 96-well microtitre plates in a defined cell number (1250 cells/well for Hct116) and then incubated overnight in an incubator at 37° C., 5% CO2 and 95% air humidity. The test substances were prepared as stock solutions (10 mM) in DMSO. To determine the EC50 values the potential inhibitor substances were added to the cells in half-logarithmically graded dilutions, resulting in final concentrations of 1.58 nM-50 μM. The cell plates were then incubated for ˜48 h in an incubator at 37° C., 5% CO2 and 95% air humidity.
For the detection reaction the substrate XTT was mixed with PMS (N-Methyl dibenzopyrazine methylsulfate, Sigma) and added to the cells so that a final concentration of 325 μg XTT/ml and 2.5 μg PMS/ml was obtained. It was then incubated for 3 h at 37° C., 95% air humidity. The formazan salt formed by the cellular dehydrogenases could then be quantified by adsorption at 490 nm.
The % inhibition value was evaluated by means of the following formula from the values for the optical densities measured in each case at 490 nm:
Eight determinations were made for each control and two for the substance samples. The 0% control contains no cells, the 100% control (proliferation control) contains no test substance. The EC50 values were determined using GraphPadPrism.
For orientation: Formazan colour is commonly taken as a measure of viable cells.

Series [2] deals with T1, Erk2.
T1 construct: partly as full-length kinases, partly as shortened fragments, but at least consisting of the functional kinase domains; purchased Upstate 14-173
As to the kind of experiment: Cell-free kinase assay (ALPHA technology), Erk2. The format is biochemical. The conditions noted are these: at 10 μM ATP; recombinant human kinase.

Series [3] deals with T2, PI3Kalpha (Homo sapiens, UniProt P42336).
T2 construct: partly as full-length kinases, partly as shortened fragments, but at least consisting of the functional kinase domains; purchased Upstate 14-602
As to the kind of experiment: Cell-free kinase assay (ALPHA technology), PI3Kalpha. The format is biochemical. Particulars: at 100 μM ATP; recombinant human kinase. How it is done: The inhibitory effect of the compounds according to the invention was tested on various serine/threonine, tyrosine and lipid kinases in enzymatic assays. Recombinant human kinases such as, for example, Erk2, PI3Kalpha and others were used in this case, partly as full-length kinases, partly as shortened fragments, but at least consisting of the functional kinase domains. The commercial kinase proteins (Proqinase, Upstate) were used as recombinant fusion proteins with GST (glutathion-S-transferase) or His-Tag. Depending on the type of substrate, the various kinase reactions were quantified by means of suitable ALPHA™ beads (Perkin-Elmer).
The substance testing is described in detail hereinafter for the Erk assay. To determine the IC50 value, the potential inhibitor substances were investigated in 10 semi-logarithmically graded concentrations of 3.16 nM-100 μM.
b) PI3K-ALPHAs (e.g. PI3Kalpha): the test substance, 1 ng PI3Kalpha (#14-602, Upstate), 100 μM ATP and 20 μM PIP2 substrate (#64910, Cayman Chemicals) were incubated on a 384-well Optiplate (Perkin-Elmer) for 1 h in 50 mM Hepes, 50 mM NaCl, 5 mM MgCl2, 0.05% Chaps, 5 mM DTT at pH 7.4. The kinase reaction was then stopped by adding ALPHA bead mixes (10 μg/ml, #6760603/Perkin-Elmer) pre-incubated with 1 nM GST:Grp1 fusion protein (Upstate) and 15 nM biotinylated PIP3 (#10009531, Cayman Chemicals) in 50 mM Hepes, 50 mM NaCl, 50 mM EDTA and 0.1% BSA and left to stand overnight.
The fluorescence was detected the following morning in a Envision plate reader (Perkin-Elmer).
The %-inhibition values per substance concentration were calculated by means of the following formula from the raw data determined in the Envision plate reader:
Eight determinations were made for each control and two for the substance samples. The 0% control either contains no ATP or no substrate, the 100% control (fully active kinase) contains no test substance. The IC50 values were determined using GraphPadPrism.

T1 sequence (P63085 2-358 limits assumed): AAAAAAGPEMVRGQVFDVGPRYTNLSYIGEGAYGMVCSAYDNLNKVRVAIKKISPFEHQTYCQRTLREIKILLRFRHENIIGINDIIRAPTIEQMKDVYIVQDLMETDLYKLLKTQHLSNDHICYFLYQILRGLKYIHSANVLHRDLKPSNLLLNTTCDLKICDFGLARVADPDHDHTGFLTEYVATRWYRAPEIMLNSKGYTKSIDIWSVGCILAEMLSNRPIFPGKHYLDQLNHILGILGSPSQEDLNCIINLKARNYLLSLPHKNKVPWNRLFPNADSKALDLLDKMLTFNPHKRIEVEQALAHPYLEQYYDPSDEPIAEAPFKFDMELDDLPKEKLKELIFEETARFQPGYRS
T2 sequence (P42336 whole entry, the tested form may be a part): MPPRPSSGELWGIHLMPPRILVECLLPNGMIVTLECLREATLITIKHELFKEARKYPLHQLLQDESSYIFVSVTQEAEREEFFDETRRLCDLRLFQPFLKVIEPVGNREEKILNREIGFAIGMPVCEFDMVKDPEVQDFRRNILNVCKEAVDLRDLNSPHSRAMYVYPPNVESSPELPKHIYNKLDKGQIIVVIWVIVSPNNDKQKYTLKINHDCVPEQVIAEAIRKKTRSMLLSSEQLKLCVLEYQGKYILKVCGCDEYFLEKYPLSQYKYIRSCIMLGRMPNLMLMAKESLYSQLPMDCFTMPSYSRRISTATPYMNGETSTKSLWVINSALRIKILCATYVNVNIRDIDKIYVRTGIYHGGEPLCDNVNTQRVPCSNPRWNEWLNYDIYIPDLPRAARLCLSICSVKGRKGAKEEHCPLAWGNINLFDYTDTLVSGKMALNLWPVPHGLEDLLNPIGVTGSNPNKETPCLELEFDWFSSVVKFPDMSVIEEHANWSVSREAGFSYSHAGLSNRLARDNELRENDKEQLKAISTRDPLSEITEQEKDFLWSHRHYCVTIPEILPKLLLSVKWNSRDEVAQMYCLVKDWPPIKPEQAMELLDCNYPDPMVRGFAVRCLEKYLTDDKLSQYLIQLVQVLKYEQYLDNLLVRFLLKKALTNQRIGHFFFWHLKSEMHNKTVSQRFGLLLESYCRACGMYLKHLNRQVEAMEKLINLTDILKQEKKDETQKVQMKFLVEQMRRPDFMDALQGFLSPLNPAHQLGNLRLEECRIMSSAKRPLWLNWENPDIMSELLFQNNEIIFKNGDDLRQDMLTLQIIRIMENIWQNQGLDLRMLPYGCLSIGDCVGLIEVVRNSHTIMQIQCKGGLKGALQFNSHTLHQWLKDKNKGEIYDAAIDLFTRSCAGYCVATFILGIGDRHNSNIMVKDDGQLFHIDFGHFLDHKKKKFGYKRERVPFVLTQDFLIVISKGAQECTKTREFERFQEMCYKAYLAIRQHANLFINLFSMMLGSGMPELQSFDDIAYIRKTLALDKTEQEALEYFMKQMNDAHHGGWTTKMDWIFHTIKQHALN
T2 sequence (P27986 whole entry partner, the tested form may be a part): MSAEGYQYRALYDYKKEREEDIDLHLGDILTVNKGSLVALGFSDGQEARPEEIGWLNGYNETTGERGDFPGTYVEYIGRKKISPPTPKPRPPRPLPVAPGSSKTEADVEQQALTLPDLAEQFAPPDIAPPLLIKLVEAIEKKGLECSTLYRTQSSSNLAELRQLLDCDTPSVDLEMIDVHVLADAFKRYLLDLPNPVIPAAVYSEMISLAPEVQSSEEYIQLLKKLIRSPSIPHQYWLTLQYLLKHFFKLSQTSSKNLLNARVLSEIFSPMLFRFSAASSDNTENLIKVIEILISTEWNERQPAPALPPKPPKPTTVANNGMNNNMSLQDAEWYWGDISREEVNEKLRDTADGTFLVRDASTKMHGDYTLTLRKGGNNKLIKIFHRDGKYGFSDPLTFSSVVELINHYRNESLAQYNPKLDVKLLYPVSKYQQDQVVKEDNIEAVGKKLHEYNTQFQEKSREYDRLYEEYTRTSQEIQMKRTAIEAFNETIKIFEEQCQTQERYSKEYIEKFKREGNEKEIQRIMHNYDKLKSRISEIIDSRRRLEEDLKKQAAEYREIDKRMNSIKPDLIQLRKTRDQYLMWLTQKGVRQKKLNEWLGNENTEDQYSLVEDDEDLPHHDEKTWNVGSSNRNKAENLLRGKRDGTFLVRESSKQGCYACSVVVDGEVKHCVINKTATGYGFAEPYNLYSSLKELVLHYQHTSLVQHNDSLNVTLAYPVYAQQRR

Regarding `CCNC(=S)Nc1ccc2ncc(-c3cnn(Cc4cccc(OC(F)F)c4)c3)nc2n1` [Compound 27, 1-{3-[1-(3-Difluoromethoxy-benzyl)-1H-pyrazol-4-yl]-pyrido[2,3-b]pyrazin-6-yl}-3-ethyl-thiourea], in series [1], a half-maximal response (EC50) required 1530 nM. Further, the IC50 in series [2] stood at 750 nM; in series [3], 59 nM.

On to `CCNC(=S)Nc1ccc2ncc(-c3cnn(Cc4ccc(OC)c(OC)c4)c3)nc2n1` [Compound 28, 1-{3-[1-(3,4-Dimethoxy-benzyl)-1H-pyrazol-4-yl]-pyrido[2,3-b]pyrazin-6-yl}-3-ethyl-thiourea], for which the melting point worked out at 213 °C. In addition, the EC50 in series [1] worked out at 1650 nM. The IC50 in series [2] was determined as 112 nM. Moreover, the IC50 in series [3] amounted to 82 nM. In turn, `CCNC(=S)Nc1ccc2ncc(-c3cnn(Cc4cccc(OC)c4F)c3)nc2n1` [Compound 29, 1-Ethyl-3-{3-[1-(2-fluoro-3-methoxy-benzyl)-1H-pyrazol-4-yl]-pyrido[2,3-b]pyrazin-6-yl}-thiourea] had a melting point of 215 to 220 °C. The EC50 in series [1] came to 2560 nM. Further, the half-maximal inhibitory concentration (IC50) in series [2] turned out to be 492 nM. For the same molecule, the IC50 in series [3] is 112 nM.

Take `CCNC(=S)Nc1ccc2ncc(-c3cnn(Cc4cccc(OC)c4)c3)nc2n1` [Compound 40, 1-Ethyl-3-{3-[1-(3-methoxy-benzyl)-1H-pyrazol-4-yl]-pyrido[2,3-b]pyrazin-6-yl}-thiourea]: the melting point lay in the range of 217 to 220 °C. The EC50 in series [1] amounted to 2570 nM. The IC50 in series [2] was determined as 336 nM. In addition, the IC50 in series [3] was determined as 168 nM. The matching figures for `CCNC(=S)Nc1ccc2ncc(-c3cnn(Cc4cccc(C)c4)c3)nc2n1` [Compound 41, 1-Ethyl-3-{3-[1-(3-methyl-benzyl)-1H-pyrazol-4-yl]-pyrido[2,3-b]pyrazin-6-yl}-thiourea]: 258 to 261 °C, 3010 nM, 400 nM and 184 nM. The matching figures for `CCNC(=O)Nc1ccc2ncc(-c3cnn(Cc4ccc(OC)c(OC)c4)c3)nc2n1` [Compound 42, 1-{3-[1-(3,4-Dimethoxy-benzyl)-1H-pyrazol-4-yl]-pyrido[2,3-b]pyrazin-6-yl}-3-ethyl-urea]: 205 °C, 1980 nM, 43 nM and 274 nM. Regarding `CCNC(=S)Nc1ccc2ncc(-c3cnn(Cc4ccc(Cl)cc4)c3)nc2n1` [Compound 50, 1-{3-[1-(4-Chloro-benzyl)-1H-pyrazol-4-yl]-pyrido[2,3-b]pyrazin-6-yl}-3-ethyl-thiourea], the melting point turned out to be 249 °C. Still for that read-out and setting: the figure for `Cc1cccc(Cn2cc(-c3cnc4ccc(NC(=S)NCC(F)(F)F)nc4n3)cn2)c1` [Compound 51, 1-{3-[1-(3-Methyl-benzyl)-1H-pyrazol-4-yl]-pyrido[2,3-b]pyrazin-6-yl}-3-(2,2,2-trifluoro-ethyl)-thiourea] is 249 °C. In the case of `CCNC(=S)Nc1ccc2ncc(-c3cnn(Cc4ccccc4C)c3)nc2n1` [Compound 52, 1-Ethyl-3-{3-[1-(2-methyl-benzyl)-1H-pyrazol-4-yl]-pyrido[2,3-b]pyrazin-6-yl}-thiourea], the melting point was 252 to 255 °C.

`CCNC(=S)Nc1ccc2ncc(-c3cnn(CCc4ccccc4)c3)nc2n1` [Compound 53, 1-Ethyl-3-[3-(1-phenethyl-1H-pyrazol-4-yl)-pyrido[2,3-b]pyrazin-6-yl]-thiourea] registered a melting point of 231 to 233 °C. For `CCNC(=O)Nc1ccc2ncc(-c3cnn(Cc4ccc(O)c(OC)c4)c3)nc2n1` [Compound 54, 1-Ethyl-3-{3-[1-(4-hydroxy-3-methoxy-benzyl)-1H-pyrazol-4-yl]-pyrido[2,3-b]pyrazin-6-yl}-urea], the melting point worked out at 237 °C. Take `CCNC(=S)Nc1ccc2ncc(-c3cnn(Cc4ccc(O)c(OC)c4)c3)nc2n1` [Compound 55, 1-Ethyl-3-{3-[1-(4-hydroxy-3-methoxy-benzyl)-1H-pyrazol-4-yl]-pyrido[2,3-b]pyrazin-6-yl}-thiourea]: the melting point was 242 °C. Also, the IC50 in series [2] stood at 523 nM. In addition, the IC50 in series [3] was 391 nM. The molecule `CCNC(=O)Nc1ccc2ncc(-c3cnn(Cc4ccc(OC)c(O)c4)c3)nc2n1` [Compound 56, 1-Ethyl-3-{3-[1-(3-hydroxy-4-methoxy-benzyl)-1H-pyrazol-4-yl]-pyrido[2,3-b]pyrazin-6-yl}-urea] yielded a melting point of 250 °C.

The molecule `CCNC(=S)Nc1ccc2ncc(-c3cnn(Cc4ccc(OC)c(O)c4)c3)nc2n1` [Compound 57, 1-Ethyl-3-{3-[1-(3-hydroxy-4-methoxy-benzyl)-1H-pyrazol-4-yl]-pyrido[2,3-b]pyrazin-6-yl}-thiourea] yielded a melting point of 230 °C. `CCNC(=O)Nc1ccc2ncc(-c3cnn(Cc4cccc(S(C)(=O)=O)c4)c3)nc2n1` [Compound 64, 1-Ethyl-3-{3-[1-(3-methanesulfonyl-benzyl)-1H-pyrazol-4-yl]-pyrido[2,3-b]pyrazin-6-yl}-urea] came in with a melting point of 218 °C. As to `CCNC(=S)Nc1ccc2ncc(-c3cnn(Cc4cccc(S(C)(=O)=O)c4)c3)nc2n1` [Compound 65, 1-Ethyl-3-{3-[1-(3-methanesulfonyl-benzyl)-1H-pyrazol-4-yl]-pyrido[2,3-b]pyrazin-6-yl}-thiourea], in series [1], the EC50 amounted to 2110 nM. The figures for the IC50 in series [2] and in series [3] were 225 nM and 180 nM, respectively. In turn, `CCNC(=O)Nc1ccc2ncc(-c3cnn(Cc4cccc(OCCOC)c4)c3)nc2n1` [Compound 66, 1-Ethyl-3-(3-{1-[3-(2-methoxy-ethoxy)-benzyl]-1H-pyrazol-4-yl}-pyrido[2,3-b]pyrazin-6-yl)-urea] returned a melting point of 201 °C. With `CCNC(=O)Nc1ccc2ncc(-c3csc(C(=O)O)c3)nc2n1` [Compound 212, 4-[6-(3-Ethyl-ureido)-pyrido[2,3-b]pyrazin-3-yl]-thiophene-2-carboxylic acid], the melting point was 250 °C (dec.). On the same count and under the same terms, the figure for `CCNC(=O)Nc1ccc2ncc(-c3ccc(CO)s3)nc2n1` [Compound 396, 1-Ethyl-3-[3-(5-hydroxymethyl-thiophen-2-yl)-pyrido[2,3-b]pyrazin-6-yl]-urea] is 222 °C. For `CCNC(=O)Nc1ccc2ncc(-c3cnn(CCC(N)=O)c3)nc2n1` [Compound 404, 3-{4-[6-(3-Ethyl-ureido)-pyrido[2,3-b]pyrazin-3-yl]-pyrazol-1-yl}-propionamide], the melting point is 247 °C. For the molecule `CCNC(=O)Nc1ccc2ncc(-c3cnn(CCNC(=O)OC(C)(C)C)c3)nc2n1` [Compound 406, (2-{4-[6-(3-Ethyl-ureido)-pyrido[2,3-b]pyrazin-3-yl]-pyrazol-1-yl}ethyl)-carbamic acid tert-butyl ester], the melting point stood at 235 °C. For `CCNC(=O)Nc1ccc2ncc(-c3ccc(C)o3)nc2n1` [Compound 416, 1-Ethyl-3-[3-(5-methyl-furan-2-yl)-pyrido[2,3-b]pyrazin-6-yl]-urea], the melting point amounted to 242 °C. For `CCNC(=O)Nc1ccc2ncc(-c3ccoc3)nc2n1` [Compound 432, 1-Ethyl-3-(3-furan-3-yl-pyrido[2,3-b]pyrazin-6-yl)-urea], the melting point stood at 240 °C.

As a reminder, the EC50 is the concentration at which the effect is half-maximal. A higher EC50 goes with weaker potency. The IC50 is the concentration at which inhibition is half-maximal. As a reminder, the melting point is the temperature, or range, at which the solid turns liquid.
